Measured values as given in patent publication US20180200233A1, “COMPOSITIONS FOR PREVENTING CANCERS ASSOCIATED WITH HUMAN PAPILLOMA VIRUSES” (Loma Linda University, priority 2015, published 2018).

How the values were obtained:
GST-E6/His-caspase 8 = biological target: T1, GST-E6/His-caspase 8 (Human papillomavirus type 16, UniProt P03126); test: AlphaScreen bead-based assay, GST-E6/His-caspase 8 binding; set-up: species or system HPV 16
T1 construct: made in house
Experimental: FIGS. 2A-C are graphs providing data regarding inhibition of protein-protein interactions by 3-(1H-indol-1yl)propan-1-amine (1), three benzimidazole derivatives (2-4), and spinacine (5). Compounds, at the indicated concentrations (1.4 μM to 3.2 mM) were tested using a bead-based screening assay for their ability to inhibit three different protein/protein interactions: (FIG. 2A) GST-E6/His-caspase 8; (FIG. 2B) GST-E6/HisE6AP; and (FIG. 2C) GST-caspase 8/His-caspase 8. Binding in the presence of 1.4 μM of the test compound was set at 100%. Experiments were performed in triplicate, and error bars indicate the standard deviation.
HPV E6 binds to caspase 8 (Garnett, T. O., M. Filippova, and P. J. Duerksen-Hughes, Accelerated degradation of FADD and procaspase 8 in cells expressing human papilloma virus 16 E6 impairs TRAIL-mediated apoptosis. Cell death and differentiation, 2006. 13(11): p. 1915-26), and myricetin can block the E6/caspase 8 interaction in vitro (Yuan, C. H., et al., Small molecule inhibitors of the HPV16-E6 interaction with caspase 8. Bioorganic & medicinal chemistry letters, 2012. 22(5): p. 2125-9). A bead-based assay based on AlphaScreen™ technology (Perkin-Elmer) is used to identify inhibitors of the E6/caspase 8 interaction (Yuan, C. H., et al., Small molecule inhibitors of the HPV16-E6 interaction with caspase 8. Bioorganic & medicinal chemistry letters, 2012. 22(5): p. 2125-9). The ActiProbe 2K (2,000 compounds) library was screened using the same approach. […] Analysis of the structures and physical/chemical characteristics of those molecules led to the selection of five additional compounds: 3-(1H-indol-1-yl)propan-1-amine methanesulfonate (1), benzimidazole (2), 1H-benzimidazole-1-methanol (3), 2-(methoxymethyl)-1H-benzimidazole (4), and spinacine (5) for further study (FIG. 1).
To determine the dose-responsiveness of these five compounds, variable concentrations of those small molecules were first tested for their ability to inhibit E6/caspase binding. […] These molecules, which had been selected for their ability to interfere with E6/caspase 8 binding, were then tested to determine if they could also affect other interactions of E6, such as its binding to E6-associated protein (E6AP). The E6/E6AP interaction is required for the E6-mediated acceleration of p53 degradation (Huibregtse, J. M., M. Scheffner, and P. M. Howley, A cellular protein mediates association of p53 with the E6 oncoprotein of human papillomavirus types 16 or 18. The EMBO journal, 1991. 10(13): p. 4129-35).
Alpha-Screen™ technology was used to assess the interactions between GST-E6, GST-caspase 8, His-E6AP, and His-caspase 8. Binding assays were performed in white 384-well plates (Perkin-Elmer) in a total volume of 25 μl as previously described (Tungteakkhun, S. S., et al., The interaction between human papillomavirus type 16 and FADD is mediated by a novel E6 binding domain. Journal of virology, 2008. 82(19): p. 9600-14). Briefly, 5 μl (50 ng) of GST-E6 and 5 μl (87.5 ng) of His-caspase 8 were included in each reaction mixture with 5 μl blocking buffer (0.5 mg BSA, 0.5% Tween 20 in PBS) in the absence or presence of 10 μM of each test chemical. […] The mixture was incubated in the dark at room temperature overnight, and the emitted signal was detected using the Envision Multilabel plate reader (Perkin-Elmer). In the presence of test chemicals, the binding affinity was calculated as a percentage of the binding in the presence of carrier only (DMSO).

[1] = test system: UPCI-SCC90-UP-Clone 35 (#90) cells; test: MTT cell viability, HPV+ HNSCC cell line #90 with TRAIL; type: cell-based; details: HPV+ #90 cells, 50 ng/ml TRAIL
Experimental: FIGS. 7A-E are graphs showing myricetin and spinacine (5) re-sensitized HPV^+, but not HPV^−, head and neck cancer cell lines to treatment with TRAIL. (FIG. 7A) Both HPV^− and HPV^+ HN cancer cell lines display resistance to TRAIL treatment. HPV^− (#84) (Myricetin—FIG. 7B; Spinacine—FIG. 7C) and HPV^+ (#90) (FIG. 7D; Spinacine—FIG. 7E) head and neck cancer cell lines (2×10^4 cells per well) were seeded into 96-well plates and allowed to incubate overnight, then cells were pre-treated with myricetin (0-200 μM) or spinacine (0-100 μM) for 4 h. […] of TRAIL, along with cycloheximide (5 μg/ml) was added and cells were allowed to incubate overnight. Cell viability was measured by the MTT assay, and the viability of cells untreated with small molecules was set at 100%. Experiments were performed in triplicate, and error bars indicate the standard deviation.
As shown above, myricetin and spinacine sensitize SiHa cells to TRAIL and chemotherapy drugs. […] Other types of HPV^+ cancer cells were examined, and in particular, head and neck squamous cell carcinoma (HNSCC) cells can also be sensitized in this manner. […] For the combination experiments, 50 ng/ml TRAIL was applied in combination with either myricetin (0-200 μM) or spinacine (0-100 μM). […] In contrast […], TRAIL-induced cell death was enhanced 30% in UPCI-SCC90-UP-Clone 35, #90. Furthermore, 40 μM spinacine was able to enhance TRAIL-induced cell death in the HPV^+ #90 cell lines up to 50%.
The extracellular domain of human TRAIL was cloned into a pTriEx expression plasmid containing N-terminal Hisx6 tag. His-TRAIL was expressed in the E. coli BL-21 pLys strain and purified as previously described. Doxorubicin and cisplatin were purchased from Sigma. His-TRAIL, doxorubicin, and cisplatin were diluted in PBS to the desired concentration before using. […] All experiments were repeated at least three times (three biological replicates, carried out on different days), with each experimental group measured in triplicate within each of these individual experiments. […]

T1 sequence (P03126 whole entry): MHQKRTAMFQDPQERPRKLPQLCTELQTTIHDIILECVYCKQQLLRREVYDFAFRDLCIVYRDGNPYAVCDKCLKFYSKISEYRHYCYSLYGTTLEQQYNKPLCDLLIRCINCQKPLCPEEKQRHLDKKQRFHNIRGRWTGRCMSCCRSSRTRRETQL

OCn1cnc2ccccc21 [Compound 3, 1H-benzimidazole-1-methanol]
EC50 for GST-E6/His-caspase 8 interaction (GST-E6/His-caspase 8; bead-based assay, compounds tested 1.4 μM to 3.2 mM): No Inhibition

O=C(O)C1Cc2[nH]cnc2CN1 (stereo not shown) [Compound 5, 4,5,6,7-Tetrahydro-1H-imidazo(4,5-c)pyridine-6-carboxylic acid]
inhibition of E6/caspase 8 binding (in words) (GST-E6/His-caspase 8; FIG. 2A, primary screen at 10 μM): dose-dependent inhibition | enhancement of TRAIL-induced cell death ([1]; 40 μM spinacine): up to 50%

O=c1c(O)c(-c2cc(O)c(O)c(O)c2)oc2cc(O)cc(O)c12 [Myricetin, reference compound]
enhancement of TRAIL-induced cell death ([1]; myricetin 0-200 μM): 30%
